# Publication PMC6801739, “Antitumor Activity of a Novel Tyrosine Kinase Inhibitor AIU2001 Due to Abrogation of the DNA Damage Repair in Non-Small Cell Lung Cancer Cells” (International Journal of Molecular Sciences, 2019)
# Columns and labels:
# [1] = target: T1, Abl (Homo sapiens, UniProt P00519); assay: Kinase profiling at 10 μM (Eurofins); format: biochemical; conditions: read-out: Inhibitory activity
# T1 construct: purchased Eurofins Pharma Discovery (KinaseProfiler); IC50 values by Reaction Biology Corp
# [2] = tested on: H1299 cells; assay: Annexin V/PI flow cytometric analysis of apoptosis; format: cell-based, human; conditions: 10 µM, 48 h
# Method: (§1) Annexin V assays were performed according to the manufacturer’s protocol (BD Pharmingen, San Diego, CA, USA). Briefly, 10,000 cells were plated into 60-mm plates and treated with varying concentrations of AIU2001 for 48 h. The cells were harvested and incubated with 4 μL allophycocyanin (APC)-conjugated annexin V (20 μg/mL) and 4 μL PI (50 μg/mL) for 15 min. Fluorescence analyses were performed using flow cytometry (CyFlow Cube 6; Sysmexpartec, Goerlitz, Germany). Cells were classified as early apoptotic (annexin V-positive/PI-negative), late apoptotic/necrotic (annexin V-positive/PI-positive), necrotic/dead (annexin V-negative/PI-positive), and live (annexin V-negative/PI-negative). Flow cytometry data was analyzed using FlowJo software (TreeStar Inc., Ashland, OR, USA).
# [3] = tested on: A549 cells; assay: Annexin V/PI flow cytometric analysis of apoptosis; format: cell-based, human; conditions: 10 µM, 48 h
# Method: as §1
# [4] = target: T2, p70S6K (Homo sapiens, UniProt P23443); assay: Kinase profiling at 10 μM (Eurofins); format: biochemical; conditions: read-out: Inhibitory activity
# T2 construct: purchased Eurofins Pharma Discovery (KinaseProfiler); IC50 values by Reaction Biology Corp
# T2 sequence (P23443 whole entry): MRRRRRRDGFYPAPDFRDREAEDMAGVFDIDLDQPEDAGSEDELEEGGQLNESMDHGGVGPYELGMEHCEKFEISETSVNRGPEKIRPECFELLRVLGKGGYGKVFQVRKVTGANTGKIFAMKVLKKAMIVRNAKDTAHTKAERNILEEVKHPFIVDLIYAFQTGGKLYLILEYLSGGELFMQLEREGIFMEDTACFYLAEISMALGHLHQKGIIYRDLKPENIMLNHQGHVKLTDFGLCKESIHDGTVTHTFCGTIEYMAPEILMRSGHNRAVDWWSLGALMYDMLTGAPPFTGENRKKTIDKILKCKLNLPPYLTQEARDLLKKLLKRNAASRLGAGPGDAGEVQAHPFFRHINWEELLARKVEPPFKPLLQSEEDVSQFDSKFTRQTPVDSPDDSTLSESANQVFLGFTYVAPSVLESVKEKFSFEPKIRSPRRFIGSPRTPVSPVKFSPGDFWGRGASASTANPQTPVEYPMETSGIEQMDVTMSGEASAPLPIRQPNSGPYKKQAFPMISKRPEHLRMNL
# [5] = target: T3, FLT3 (Homo sapiens, UniProt P36888); assay: Kinase profiling at 10 μM (Eurofins); format: biochemical; conditions: read-out: Inhibitory activity
# T3 construct: purchased Eurofins Pharma Discovery (KinaseProfiler); IC50 values by Reaction Biology Corp
# [6] = target: T4, ALK (Homo sapiens, UniProt Q9UM73); assay: Kinase profiling at 10 μM (Eurofins); format: biochemical; conditions: read-out: Inhibitory activity
# T4 construct: purchased Eurofins Pharma Discovery (KinaseProfiler); IC50 values by Reaction Biology Corp
# [7] = target: T5, DDR2 (Homo sapiens, UniProt Q16832); assay: Kinase profiling at 10 μM (Eurofins); format: biochemical; conditions: read-out: Inhibitory activity
# T5 construct: purchased Eurofins Pharma Discovery (KinaseProfiler); IC50 values by Reaction Biology Corp
# [8] = target: T6, CK2 (Homo sapiens, UniProt P68400); assay: Kinase profiling at 10 μM (Eurofins); format: biochemical; conditions: read-out: Inhibitory activity
# T6 construct: purchased Eurofins Pharma Discovery (KinaseProfiler); IC50 values by Reaction Biology Corp
# T6 sequence (P68400 whole entry): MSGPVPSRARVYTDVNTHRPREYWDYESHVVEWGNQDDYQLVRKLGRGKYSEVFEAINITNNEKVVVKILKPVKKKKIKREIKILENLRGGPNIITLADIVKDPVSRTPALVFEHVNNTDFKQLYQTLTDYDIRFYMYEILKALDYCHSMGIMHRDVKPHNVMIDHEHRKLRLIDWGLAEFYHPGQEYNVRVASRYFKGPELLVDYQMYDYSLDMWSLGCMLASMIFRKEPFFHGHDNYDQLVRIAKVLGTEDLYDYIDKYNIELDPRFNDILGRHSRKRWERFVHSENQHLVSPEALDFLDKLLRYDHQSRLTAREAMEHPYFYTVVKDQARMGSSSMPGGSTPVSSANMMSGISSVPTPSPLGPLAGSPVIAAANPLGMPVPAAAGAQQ
# T6 sequence (P67870 whole entry partner): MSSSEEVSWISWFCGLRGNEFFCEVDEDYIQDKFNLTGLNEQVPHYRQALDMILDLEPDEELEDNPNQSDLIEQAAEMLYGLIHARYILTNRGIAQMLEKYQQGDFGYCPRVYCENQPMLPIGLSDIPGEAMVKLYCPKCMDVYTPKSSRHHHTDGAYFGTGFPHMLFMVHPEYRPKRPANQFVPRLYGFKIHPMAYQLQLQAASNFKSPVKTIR
# [9] = tested on: H1299 cells; assay: Detection of intracellular ROS (CM-H2DCFDA, flow cytometry); format: cell-based, human; conditions: 5 μM, 24 h
# Method: (§2) DMSO- or AIU2001-treated cells (5 × 10^5) were further treated with 10 μM CM-H2DCFH-DA for 30min and then washed with PBS before trypsinization. After detaching with trypsin, the cells were collected, washed, and resuspended in PBS. ROS inhibition was evaluated by treating cells with 5 mM NAC 2 h prior to AIU2001 treatment. Intracellular ROS levels were detected using a flow cytometer (CyFlow cube 6) at excitation/emission wavelengths of 488/525 nm.
# [10] = tested on: A549 cells; assay: as above; format: cell-based, human; conditions: 5 μM, 24 h
# Method: as §2
# [11] = target: T7, ARK5 (Homo sapiens, UniProt O60285); assay: Kinase profiling at 10 μM (Eurofins); format: biochemical; conditions: read-out: Inhibitory activity
# T7 construct: purchased Eurofins Pharma Discovery (KinaseProfiler); IC50 values by Reaction Biology Corp
# T7 sequence (O60285 whole entry): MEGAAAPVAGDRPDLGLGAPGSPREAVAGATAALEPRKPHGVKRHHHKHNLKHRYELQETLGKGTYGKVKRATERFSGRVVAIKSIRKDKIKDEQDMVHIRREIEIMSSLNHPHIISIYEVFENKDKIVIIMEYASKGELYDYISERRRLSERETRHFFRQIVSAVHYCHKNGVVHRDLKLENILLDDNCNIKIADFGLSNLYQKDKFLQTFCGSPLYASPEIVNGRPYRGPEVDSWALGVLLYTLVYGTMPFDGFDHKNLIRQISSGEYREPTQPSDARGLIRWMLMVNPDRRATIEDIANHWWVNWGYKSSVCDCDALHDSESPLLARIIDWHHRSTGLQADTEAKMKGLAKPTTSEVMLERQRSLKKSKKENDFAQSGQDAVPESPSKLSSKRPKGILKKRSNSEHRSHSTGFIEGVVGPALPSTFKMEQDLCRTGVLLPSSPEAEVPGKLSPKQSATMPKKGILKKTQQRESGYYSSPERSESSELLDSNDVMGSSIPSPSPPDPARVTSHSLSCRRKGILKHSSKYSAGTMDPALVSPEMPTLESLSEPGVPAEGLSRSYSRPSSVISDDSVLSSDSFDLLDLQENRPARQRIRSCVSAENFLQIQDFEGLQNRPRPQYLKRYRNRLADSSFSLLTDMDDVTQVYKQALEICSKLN
# [12] = tested on: H460 cells; assay: MTT cell viability assay; format: cell-based, human; conditions: five days
# Method: (§3) Cell viability was assessed using the MTT colorimetric assay. Cells (1 × 10^3 cells/well) were seeded into 96-well plates and treated with the various concentrations of each compound or combination of two compounds. After five days of treatment, 10 μL MTT (0.5 mg/mL) was added, and further incubated for 3 h. After removal of the supernatant, the resultant pellet was dissolved in DMSO. The absorbance of the resultant formazan was measured at 540 nm using a plate reader (Multiskan EX; ThermoLabsystems, Waltham, MA, USA).
# [13] = tested on: CCD18-Lu cells; assay: MTT cell viability assay; format: cell-based, human; conditions: CCD18-Lu lung fibroblast cells, five days
# Method: as §3
# [14] = tested on: BEAS2B cells; assay: MTT cell viability assay; format: cell-based, human; conditions: BEAS2B normal bronchial epithelial cells, five days
# Method: as §3
# [15] = target: T8, MAPK2 (Homo sapiens, UniProt P28482); assay: Kinase profiling at 10 μM (Eurofins); format: biochemical; conditions: read-out: Inhibitory activity
# T8 construct: purchased Eurofins Pharma Discovery (KinaseProfiler); IC50 values by Reaction Biology Corp
# [16] = target: T9, Aurora-A (Homo sapiens, UniProt O14965); assay: Kinase profiling at 10 μM (Eurofins); format: biochemical; conditions: read-out: Inhibitory activity
# T9 construct: purchased Eurofins Pharma Discovery (KinaseProfiler); IC50 values by Reaction Biology Corp
# T9 sequence (O14965 whole entry): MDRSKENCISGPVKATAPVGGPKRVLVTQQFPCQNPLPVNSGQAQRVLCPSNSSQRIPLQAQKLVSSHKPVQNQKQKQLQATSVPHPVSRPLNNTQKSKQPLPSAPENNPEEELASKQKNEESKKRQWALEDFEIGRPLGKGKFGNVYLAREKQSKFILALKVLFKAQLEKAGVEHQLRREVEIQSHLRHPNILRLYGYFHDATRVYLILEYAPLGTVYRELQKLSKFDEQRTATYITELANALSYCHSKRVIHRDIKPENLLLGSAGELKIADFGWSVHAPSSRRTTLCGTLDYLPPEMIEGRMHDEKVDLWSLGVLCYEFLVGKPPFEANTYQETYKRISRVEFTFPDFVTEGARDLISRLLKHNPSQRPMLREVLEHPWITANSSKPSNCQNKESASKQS
# [17] = target: T10, MEK1 (Homo sapiens, UniProt Q02750); assay: Kinase profiling at 10 μM (Eurofins); format: biochemical; conditions: read-out: Inhibitory activity
# T10 construct: purchased Eurofins Pharma Discovery (KinaseProfiler); IC50 values by Reaction Biology Corp
# T10 sequence (Q02750 whole entry): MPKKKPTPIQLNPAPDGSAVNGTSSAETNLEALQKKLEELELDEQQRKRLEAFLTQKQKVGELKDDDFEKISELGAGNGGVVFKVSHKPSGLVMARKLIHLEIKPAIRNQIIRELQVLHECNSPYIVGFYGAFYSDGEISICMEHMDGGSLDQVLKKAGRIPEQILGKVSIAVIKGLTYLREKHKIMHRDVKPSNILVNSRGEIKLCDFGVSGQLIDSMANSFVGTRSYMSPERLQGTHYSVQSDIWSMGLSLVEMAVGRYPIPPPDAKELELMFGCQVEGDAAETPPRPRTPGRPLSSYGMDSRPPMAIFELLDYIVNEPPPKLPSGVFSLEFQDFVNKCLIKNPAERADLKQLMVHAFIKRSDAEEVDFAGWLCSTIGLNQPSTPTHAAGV
# [18] = tested on: H1299 cells; assay: MTT cell viability assay, single drugs and combinations, CI scores; format: cell-based, human
# Method: as §3
# (§4) CI scores were calculated using the CompuSyn software by Chou (CompuSyn Inc., Paramus, NJ) based on cell viability after treatment with single- and paired-drug concentrations. The CI equation for two drugs was used: CI=(D)A/(Dx)A+(D)B/(Dx)B where (Dx)A is the concentration of drug A alone that inhibits x%, (Dx)B is the concentration of drug B alone that inhibits x%, (D)A or (D)B is the portion of drug A or drug B in the combination (D)A + (D)B that inhibits x%.
# [19] = tested on: A549 cells; assay: as above; format: cell-based, human
# Method: as §3, §4
# [20] = target: T11, PDGFRα (Homo sapiens, UniProt P16234); assay: Kinase profiling at 10 μM (Eurofins); format: biochemical; conditions: read-out: Inhibitory activity
# T11 construct: purchased Eurofins Pharma Discovery (KinaseProfiler); IC50 values by Reaction Biology Corp
# [21] = target: FLT3(D835Y) (Homo sapiens, UniProt P36888, D835Y); assay: Kinase profiling at 10 μM (Eurofins); format: biochemical; set-up: purchased Eurofins Pharma Discovery (KinaseProfiler); IC50 values by Reaction Biology Corp; conditions: read-out: Inhibitory activity
# [22] = target: T12, PKBα (Homo sapiens, UniProt P31749); assay: Kinase profiling at 10 μM (Eurofins); format: biochemical; conditions: read-out: Inhibitory activity
# T12 construct: purchased Eurofins Pharma Discovery (KinaseProfiler); IC50 values by Reaction Biology Corp
# T12 sequence (P31749 whole entry): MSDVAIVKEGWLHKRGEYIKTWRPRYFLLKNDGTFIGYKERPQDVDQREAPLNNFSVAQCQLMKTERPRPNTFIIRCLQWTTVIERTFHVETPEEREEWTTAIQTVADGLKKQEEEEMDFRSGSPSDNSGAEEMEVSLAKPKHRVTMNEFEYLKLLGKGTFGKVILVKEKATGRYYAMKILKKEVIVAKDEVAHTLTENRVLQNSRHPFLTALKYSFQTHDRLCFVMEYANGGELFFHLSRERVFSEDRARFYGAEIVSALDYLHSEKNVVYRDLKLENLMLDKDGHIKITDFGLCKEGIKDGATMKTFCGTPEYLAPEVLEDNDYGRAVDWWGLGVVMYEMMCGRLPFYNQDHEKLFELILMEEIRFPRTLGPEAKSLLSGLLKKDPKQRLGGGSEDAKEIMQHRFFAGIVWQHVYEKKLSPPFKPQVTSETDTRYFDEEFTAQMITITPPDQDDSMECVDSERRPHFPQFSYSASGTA
# [23] = target: T13, PI3 Kinase (p110a/p85a) (Homo sapiens, UniProt P42336); assay: Kinase profiling at 10 μM (Eurofins); format: biochemical; conditions: read-out: Inhibitory activity
# T13 construct: purchased Eurofins Pharma Discovery (KinaseProfiler); IC50 values by Reaction Biology Corp
# T13 sequence (P42336 whole entry): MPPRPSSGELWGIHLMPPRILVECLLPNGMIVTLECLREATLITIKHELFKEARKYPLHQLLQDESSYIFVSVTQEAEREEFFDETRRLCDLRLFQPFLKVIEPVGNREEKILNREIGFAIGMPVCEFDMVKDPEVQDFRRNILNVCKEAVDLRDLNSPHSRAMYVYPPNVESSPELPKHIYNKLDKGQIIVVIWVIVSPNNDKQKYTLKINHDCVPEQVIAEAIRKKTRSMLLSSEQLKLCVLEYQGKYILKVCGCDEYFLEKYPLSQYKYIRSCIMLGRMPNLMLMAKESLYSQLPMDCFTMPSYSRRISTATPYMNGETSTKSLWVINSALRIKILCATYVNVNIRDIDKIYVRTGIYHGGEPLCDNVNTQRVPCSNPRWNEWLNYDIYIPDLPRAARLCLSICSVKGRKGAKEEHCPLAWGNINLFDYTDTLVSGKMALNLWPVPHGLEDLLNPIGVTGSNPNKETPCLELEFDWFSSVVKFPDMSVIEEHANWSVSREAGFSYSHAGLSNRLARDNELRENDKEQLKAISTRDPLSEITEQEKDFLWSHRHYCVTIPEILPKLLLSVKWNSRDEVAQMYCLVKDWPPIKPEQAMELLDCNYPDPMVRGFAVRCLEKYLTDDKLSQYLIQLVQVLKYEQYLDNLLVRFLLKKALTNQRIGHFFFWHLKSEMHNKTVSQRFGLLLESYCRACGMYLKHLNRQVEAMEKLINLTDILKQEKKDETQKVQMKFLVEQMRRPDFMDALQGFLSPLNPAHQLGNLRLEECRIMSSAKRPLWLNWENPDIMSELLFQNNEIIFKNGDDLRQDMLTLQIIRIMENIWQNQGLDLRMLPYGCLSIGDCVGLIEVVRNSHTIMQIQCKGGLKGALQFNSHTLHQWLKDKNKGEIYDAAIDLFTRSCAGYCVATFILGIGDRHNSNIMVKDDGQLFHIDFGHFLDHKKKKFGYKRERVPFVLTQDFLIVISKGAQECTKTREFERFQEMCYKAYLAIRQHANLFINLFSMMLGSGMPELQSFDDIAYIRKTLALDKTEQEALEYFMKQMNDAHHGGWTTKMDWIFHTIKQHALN
# T13 sequence (P27986 whole entry partner): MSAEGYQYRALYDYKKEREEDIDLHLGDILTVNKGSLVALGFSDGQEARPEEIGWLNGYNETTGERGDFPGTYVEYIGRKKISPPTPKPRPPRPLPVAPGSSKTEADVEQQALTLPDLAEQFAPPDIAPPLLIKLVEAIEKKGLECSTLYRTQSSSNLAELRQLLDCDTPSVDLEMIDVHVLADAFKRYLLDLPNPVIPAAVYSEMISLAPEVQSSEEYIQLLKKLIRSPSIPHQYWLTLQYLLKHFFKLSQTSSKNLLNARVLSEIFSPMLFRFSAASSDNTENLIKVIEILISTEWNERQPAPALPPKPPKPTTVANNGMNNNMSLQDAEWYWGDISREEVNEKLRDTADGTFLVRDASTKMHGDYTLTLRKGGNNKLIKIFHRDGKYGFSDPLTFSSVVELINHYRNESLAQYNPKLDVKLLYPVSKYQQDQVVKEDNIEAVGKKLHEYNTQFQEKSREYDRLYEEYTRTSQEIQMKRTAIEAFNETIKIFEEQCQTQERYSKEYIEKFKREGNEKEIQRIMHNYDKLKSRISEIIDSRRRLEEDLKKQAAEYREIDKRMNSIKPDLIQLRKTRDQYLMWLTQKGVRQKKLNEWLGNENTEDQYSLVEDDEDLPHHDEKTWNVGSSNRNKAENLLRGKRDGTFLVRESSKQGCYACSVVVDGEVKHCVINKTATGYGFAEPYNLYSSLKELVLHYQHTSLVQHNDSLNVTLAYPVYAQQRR
compound,measurement,setting,value
"Brc1ccc(-c2cnc(Nc3cccc4ccccc34)o2)cc1 [AIU2001, 5-(4-bromophenyl)-N-(naphthalen-1-yl) oxazol-2-amine]",inhibition at 10 µM,[1],51%
same,Increase in early and late apoptotic cells,[2],6.7 fold
same,Increase in early and late apoptotic cells,[3],4.2 fold
same,inhibition at 10 µM,[4],8%
same,inhibition at 10 µM,[5],≥ 75%
same,inhibition at 10 µM,[6],0%
same,inhibition at 10 µM,[7],55%
same,inhibition at 10 µM,[8],10%
same,ROS levels,[9],distinctly increased ROS levels
same,ROS levels,[10],distinctly increased ROS levels
same,inhibition at 10 µM,[11],75%
same,Growth inhibition,[12],significantly inhibited the growth
same,Growth inhibition,[13],relatively less
same,Growth inhibition,[14],relatively less
same,inhibition at 10 µM,[15],19%
same,inhibition at 10 µM,[16],28%
same,inhibition at 10 µM,[17],0%
same,viability at 0.16 µM,"[18]; Homo sapiens, NCI-H1299, 120 h, Olaparib 0, AIU2001 0.16 μM, 5 days, panel A, read-out: Relative viability",101%
same,viability at 0.32 µM,"[18]; Homo sapiens, NCI-H1299, 120 h, Olaparib 0, AIU2001 0.32 μM, 5 days, panel A, read-out: Relative viability",93.7%
same,viability at 0.63 µM,"[18]; Homo sapiens, NCI-H1299, 120 h, Olaparib 0, AIU2001 0.63 μM, 5 days, panel A, read-out: Relative viability",94.2%
same,viability at 1.25 µM,"[18]; Homo sapiens, NCI-H1299, 120 h, Olaparib 0, AIU2001 1.25 μM, 5 days, panel A, read-out: Relative viability",90%
same,viability at 2.5 µM,"[18]; Homo sapiens, NCI-H1299, 120 h, Olaparib 0, AIU2001 2.50 μM, 5 days, panel A, read-out: Relative viability",65.5%
same,viability at 5 µM,"[18]; Homo sapiens, NCI-H1299, 120 h, Olaparib 0, AIU2001 5.00 μM, 5 days, panel A, read-out: Relative viability",26.2%
same,viability at 10 µM,"[18]; Homo sapiens, NCI-H1299, 120 h, Olaparib 0, AIU2001 10.00 μM, 5 days, panel A, read-out: Relative viability",15.4%
same,Growth inhibition,"[18]; MTT, five days",significantly inhibited the growth
same,viability at 0.16 µM,"[19]; Homo sapiens, 120 h, Olaparib 0, AIU2001 0.16 μM, 5 days, panel A, read-out: Relative viability",95.1%
same,viability at 0.32 µM,"[19]; Homo sapiens, 120 h, Olaparib 0, AIU2001 0.32 μM, 5 days, panel A, read-out: Relative viability",95%
same,viability at 0.63 µM,"[19]; Homo sapiens, 120 h, Olaparib 0, AIU2001 0.63 μM, 5 days, panel A, read-out: Relative viability",89%
same,viability at 1.25 µM,"[19]; Homo sapiens, 120 h, Olaparib 0, AIU2001 1.25 μM, 5 days, panel A, read-out: Relative viability",86.5%
same,viability at 2.5 µM,"[19]; Homo sapiens, 120 h, Olaparib 0, AIU2001 2.50 μM, 5 days, panel A, read-out: Relative viability",53.6%
same,viability at 5 µM,"[19]; Homo sapiens, 120 h, Olaparib 0, AIU2001 5.00 μM, 5 days, panel A, read-out: Relative viability",31.6%
same,viability at 10 µM,"[19]; Homo sapiens, 120 h, Olaparib 0, AIU2001 10.00 μM, 5 days, panel A, read-out: Relative viability",21.1%
same,Growth inhibition,"[19]; MTT, five days",significantly inhibited the growth
same,inhibition at 10 µM,[20],48%
same,inhibition at 10 µM,[21],≥ 75%
same,inhibition at 10 µM,[22],24%
same,inhibition at 10 µM,[23],7%
